Assay results from US7348425B2, “Inhibitors of HCV replication” (Bristol-Myers Squibb Company, priority 2004, dated 2008).
Where two headings read alike, the source gives them in different places.

How the values were obtained:
[1] = target: T1, HCV NS5B RdRp genotype 1b (Hepatitis C virus genotype 1b, UniProt Q9WMX2); test: Standard HCV NS5B RdRp enzyme assay; format: biochemical; conditions: standard method
T1 construct: The protein was expressed with an 18 amino acid C-terminal truncation to enhance the solubility; made in house; host or cells: E. coli BL21 (DE3), pET21a
Protocol: HCVNS5B RdRp cloning, expression, and purification. The cDNA encoding the NS5B protein of HCV, genotype 1b, was cloned into the pET21a expression vector. The protein was expressed with an 18 amino acid C-terminal truncation to enhance the solubility. The E. coli competent cell line BL21 (DE3) was used for expression of the protein. Cultures were grown at 37° C. for ˜4 hours until the cultures reached an optical density of 2.0 at 600 nm. The cultures were cooled to 20° C. and induced with 1 mM IPTG. Fresh ampicillin was added to a final concentration of 50 μg/ml and the cells were grown overnight at 20° C.
Cell pellets (3 L) were lysed for purification to yield 15-24 mgs of purified NS5B. The lysis buffer consisted of 20 mM Tris-HCl, pH 7.4, 500 mM NaCl, 0.5% triton X-100, 1 mM DTT, 1 mM EDTA, 20% glycerol, 0.5 mg/ml lysozyme, 10 mM MgCl2, 15 ug/ml deoxyribonuclease I, and Complete TM protease inhibitor tablets (Roche). After addition of the lysis buffer, frozen cell pellets were resuspended using a tissue homogenizer. To reduce the viscosity of the sample, aliquots of the lysate were sonicated on ice using a microtip attached to a Branson sonicator. The sonicated lysate was centrifuged at 100,000×g for 1 hr at 4° C. and filtered through a 0.2 μm filter unit (Corning).
The protein was purified using three sequential chromatography steps: Heparin sepharose CL-6B, polyU sepharose 4B, and Hitrap SP sepharose (Pharmacia). The chromatography buffers were identical to the lysis buffer but contained no lysozyme, deoxyribonuclease I, MgCl2 or protease inhibitor and the NaCl concentration of the buffer was adjusted according to the requirements for charging the protein onto the column. Each column was eluted with a NaCl gradient which varied in length from 5-50 column volumes depending on the column type. After the final chromatography step, the resulting purity of the enzyme is >90% based on SDS-PAGE analysis. The enzyme was aliquoted and stored at −80° C.
Standard HCV NS5B RdRp enzyme assay. HCV RdRp genotype Ib assays were run in a final volume of 60 μl in 96 well plates (Costar 3912). The assay buffer is composed of 20 mM Hepes, pH 7.5, 2.5 mM KCl, 2.5 mM MgCl2, 1 mM DTT, 1.6 U RNAse inhibitor (Promega N2515), 0.1 mg/ml BSA (Promega R3961), and 2% glycerol. All compounds were serially diluted (3-fold) in DMSO and diluted further in water such that the final concentration of DMSO in the assay was 2%. HCV RdRp genotype 1b enzyme was used at a final concentration of 28 nM. A polyA template was used at 6 nM, and a biotinylated oligo-dT12 primer was used at 180 nM final concentration. Template was obtained commercially (Amersham 27-4110). Biotinylated primer was prepared by Sigma Genosys. ^3H-UTP was used at 0.6 μCi (0.29 μM total UTP). Reactions were initiated by the addition of enzyme, incubated at 30° C. for 60 min, and stopped by adding 25 μl of 50 mM EDTA containing SPA beads (4 μg/μl, Amersham RPNQ 0007). Plates were read on a Packard Top Count NXT after >1 hr incubation at room temperature.
The IC50 values for compounds were determined using seven different [I]. IC50 values were calculated from the inhibition using the formula y=A+((B−A)/(1+((C/x)^D))). FRET Assay Preparation. To perform the HCV FRET screening assay, 96-well cell culture plates were used. The FRET peptide (Anaspec, Inc.) (Taliani et al., Anal. Biochem. 240:60-67 (1996), hereby incorporated by reference in its entirety) contains a fluorescence donor, EDANS, near one end of the peptide and an acceptor, DABCYL, near the other end. The fluorescence of the peptide is quenched by […] resonance energy transfer (RET) between the donor and the acceptor, but as the NS3 protease cleaves the peptide the products are released from RET quenching and the fluorescence of the donor becomes apparent. […]

HCV replicon = HCV replicon luciferase assay; format: cell-based, Hepatitis C virus; conditions: Hepatitis C virus
Protocol: To prepare plates, HCV replicon cells, with or without a Renilla luciferase reporter gene, were trypsinized and placed into each well of a 96-well plate with titrated test compounds added in columns 3 through 12; columns 1 and 2 contained a control compound (HCV protease inhibitor), and the bottom row contained cells without compound. The plates were then placed in a CO2 incubator at 37 degrees C.
Assays. Subsequent to addition of the test compounds described above (FRET Assay Preparation), at various times the plate was removed and Alamar blue solution (Trek Diagnostics, #00-100) was added per well as a measure of cellular toxicity. After reading in a Cytoflour 4000 instrument (PE Biosystems), plates were rinsed with PBS and then used for FRET assay by the addition of 30 ul of the FRET peptide assay reagent described above (FRET Assay Preparation) per well. The plate was then placed into the Cytoflour 4000 instrument which had been set to 340 excite/490 emission, automatic mode for 20 cycles and the plate read in a kinetic mode. Typically, the signal to noise using an endpoint analysis after the reads was at least three-fold. Alternatively, after Alamar blue reading, plates were rinsed with PBS, 50 ul of DMEM (high glucose) without phenol red was added and plates were then used for luciferase assay using the Promega Dual-Glo Luciferase Assay System.
Compound analysis was determined by quantification of the relative HCV replicon inhibition and the relative cytotoxicity values. To calculate cytoxicity values, the average Alamar Blue fluorescence signals from the control wells were set as 100% non-toxic. The individual signals in each of the compound test wells were then divided by the average control signal and multiplied by 100% to determine […]. To calculate the HCV replicon inhibition values, an average background value was obtained from the two wells containing the highest amount of HCV protease inhibitor at the end of the assay period. These numbers were similar to those obtained from naïve Huh-7 cells.
The background numbers were then subtracted from the average signal obtained from the control wells and this number was used as 100% activity. The individual signals in each of the compound test wells were then divided by the averaged control values after background subtraction and multiplied by 100% to determine percent activity. EC50 values for a protease inhibitor titration were calculated as the concentration which caused a 50% reduction in FRET or luciferase activity. The two numbers generated for the compound plate, percent cytoxicity and percent activity were used to determine compounds of interest for further analysis.

[2] = luciferase method, read-out: EC50

T1 sequence (Q9WMX2 2420-2992): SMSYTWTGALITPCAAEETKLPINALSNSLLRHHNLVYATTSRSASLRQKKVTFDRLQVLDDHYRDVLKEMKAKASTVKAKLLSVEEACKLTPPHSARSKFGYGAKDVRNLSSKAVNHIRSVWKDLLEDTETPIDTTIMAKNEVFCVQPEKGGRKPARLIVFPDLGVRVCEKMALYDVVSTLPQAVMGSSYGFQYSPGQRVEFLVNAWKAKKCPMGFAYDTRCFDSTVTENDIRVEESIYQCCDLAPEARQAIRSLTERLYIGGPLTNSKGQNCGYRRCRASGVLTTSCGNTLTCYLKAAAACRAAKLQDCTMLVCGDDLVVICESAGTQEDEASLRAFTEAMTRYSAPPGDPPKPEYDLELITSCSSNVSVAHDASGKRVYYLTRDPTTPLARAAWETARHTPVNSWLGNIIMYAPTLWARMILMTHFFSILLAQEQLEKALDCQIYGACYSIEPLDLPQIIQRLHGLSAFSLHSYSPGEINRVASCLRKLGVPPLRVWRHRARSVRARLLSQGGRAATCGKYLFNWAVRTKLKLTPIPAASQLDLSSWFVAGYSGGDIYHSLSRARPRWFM

| Structure (SMILES) | IC50 [1] [nM] | EC50 (HCV replicon; [2]) [nM] | EC50 (HCV replicon) [nM] |
| --- | --- | --- | --- |
| O=C(O)/C=C/c1ccc(NC(=O)C2(NC(=O)c3ccc4c(C5CCCCC5)c5n(c4c3)CC=Cc3ccccc3-5)CCCC2)cc1 | 100 to 1000 | < 100 | – |
| O=C(O)/C=C/c1ccc(NC(=O)C2(NC(=O)c3ccc4c(C5CCCCC5)c5n(c4c3)CCCCNc3ccccc3-5)CCCC2)cc1 | > 1000 | < 100 | – |
| O=C(O)/C=C/c1ccc(NC(=O)C2(NC(=O)c3ccc4c(C5CCCCC5)c5n(c4c3)CC(=O)Nc3cccnc3-5)CCCC2)cc1 | 100 to 1000 | < 100 | – |
| NC(=O)C1Cc2ccccc2-c2c(C3CCCCC3)c3ccc(C(=O)O)cc3n2C1 (centres unmarked) | 100 to 1000 | 100 to 1000 | – |
| CNC(=O)C1Cc2ccccc2-c2c(C3CCCCC3)c3ccc(C(=O)O)cc3n2C1 (centres unmarked) | 100 to 1000 | 100 to 1000 | – |
| O=C(O)c1ccc2c(C3CCCCC3)c3n(c2c1)CC(C(=O)N1CCN(c2ccncc2)CC1)Cc1ccccc1-3 (centres unmarked) | 100 to 1000 | 100 to 1000 | – |
| COC(=O)c1ccc2c(C3CCCCC3)c3n(c2c1)CC(C(=O)N1CCN(c2ccncc2)CC1)Cc1ccccc1-3 (centres unmarked) | > 1000 | 100 to 1000 | – |
| O=C(O)c1ccc2c(C3CCCCC3)c3n(c2c1)CC(C(=O)N1CCC(O)CC1)Cc1ccccc1-3 (centres unmarked) | 100 to 1000 | 100 to 1000 | – |
| O=C(O)c1ccc2c(C3CCCCC3)c3n(c2c1)CC(C(=O)N1CCOCC1)=Cc1ccccc1-3 | 100 to 1000 | – | 100 to 1000 |
| COC(=O)c1ccc2c(C3CCCCC3)c3n(c2c1)CC(C(=O)N1CCOCC1)=Cc1ccccc1-3 | > 1000 | 1000 to 10000 | – |
| O=C(O)c1ccc2c(C3CCCCC3)c3n(c2c1)CC(C(=O)N1CCN(c2ccncc2)CC1)=Cc1ccccc1-3 | 100 to 1000 | 100 to 1000 | – |
| COC(=O)c1ccc2c(C3CCCCC3)c3n(c2c1)CC(C(=O)N1CCN(c2ccncc2)CC1)=Cc1ccccc1-3 | > 1000 | 1000 to 10000 | – |
| O=C(O)/C=C/c1ccc(NC(=O)C2(NC(=O)c3ccc4c(C5CCCCC5)c5n(c4c3)CC(C(=O)N3CCOCC3)Cc3ccccc3-5)CCCC2)cc1 (centres unmarked) | 100 to 1000 | < 100 | – |
| CN(C)S(=O)(=O)NC(=O)c1ccc2c(C3CCCCC3)c3n(c2c1)CC(C(=O)N1CCN(c2ccncc2)CC1)Cc1ccccc1-3 (centres unmarked) | 100 to 1000 | < 100 | – |
| CN(C)S(=O)(=O)NC(=O)c1ccc2c(C3CCCCC3)c3n(c2c1)CC(C(=O)N1CCOCC1)Cc1ccccc1-3 (centres unmarked) | 100 to 1000 | < 100 | – |
| CN1CCN(C(=O)C2Cc3ccccc3-c3c(C4CCCCC4)c4ccc(C(=O)NS(=O)(=O)N(C)C)cc4n3C2)CC1 (centres unmarked) | 100 to 1000 | 100 to 1000 | – |
| CN(C)S(=O)(=O)NC(=O)c1ccc2c(C3CCCCC3)c3n(c2c1)CC(C(=O)N1CCC(N2CCCC2)CC1)Cc1ccccc1-3 (centres unmarked) | 100 to 1000 | < 100 | – |
| CN(C)S(=O)(=O)NC(=O)c1ccc2c(C3CCCCC3)c3n(c2c1)CC(C(=O)N1CCCC(O)C1)Cc1ccccc1-3 (centres unmarked) | 100 to 1000 | 100 to 1000 | – |
| CN(C)S(=O)(=O)NC(=O)c1ccc2c(C3CCCCC3)c3n(c2c1)CC(C(=O)N1CCOCC1)=Cc1ccccc1-3 | 100 to 1000 | – | < 100 |
